From patent US20220282217A1, “COMPOSITIONS AND METHODS FOR PREPARING T CELL COMPOSITIONS AND USES THEREOF” (priority 2019, published 2022)
Where two headings read alike, the source gives them in different places. Where a SMILES comes first, the peptide text is derived from it.

Assays:
[1] = molecular target: HLA-A03.01 (Homo sapiens, UniProt P04439); test: Class I MHC peptide binding affinity (displacement of radiolabeled reference peptide); conditions: allele A03.01; read-out: Observed Affinity (IC50; (nM))
[2] = molecular target: T1, HLA-A02.01 (Homo sapiens, UniProt P04439, D140Y/D185E/D98H/E176V/E277Q/G131W/G231S/I119V/I121R/I166T/I218V/N151K/N90K/P208A/P217A/Q86G/Q94H/R138H/R169H); test: Class I MHC peptide binding stability (pMHC-I dissociation, 125I-labeled light chain); conditions: for Stability (T1/2 (h)): allele A02.01
T1 construct: made in house; host or cells: E. coli

[3] = molecular target: HLA-A02.01 (Homo sapiens, UniProt P04439, D140Y/D185E/D98H/E176V/E277Q/G131W/G231S/I119V/I121R/I166T/I218V/L300P/L318F/N151K/N90K/P208A/P217A/Q86G/Q94H/R138H/R169H/T345S); test: Class I MHC peptide binding affinity (displacement of radiolabeled reference peptide)
Procedure, shortened: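 Peptides compete against a prebound radiolabeled reference on MHCI over 2 days at several concentrations.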

[4] = allele A02.01, read-out: Observed Affinity (IC50, (nM))

Row | SMILES | IC50 [1] | Stability (T1/2 (h)) [2] | IC50 [3, 4] | other results
1 | CSCC[C@H](NC(=O)[C@H](CC(C)C)NC(=O)[C@@H]1CCCN1C(=O)[C@@H](NC(=O)[C@H](CCCCN)NC(=O)[C@H](CCSC)NC(=O)[C@@H](N)CCCNC(=N)N)C(C)C)C(=O)N[C@@H](CCCCN)C(=O)O (H-RMKVPLMK-OH; N-terminus and C-terminus assumed) | 33 nM | – | – | –
2 | CC(C)[C@H](NC(=O)[C@H](CCCNC(=N)N)NC(=O)[C@@H](N)CCCCN)C(=O)N[C@@H](CC(N)=O)C(=O)N[C@H](C(=O)N[C@@H](C)C(=O)N[C@@H](Cc1c[nH]c2ccccc12)C(=O)N[C@@H](CCCCN)C(=O)N[C@H](C(=O)N[C@@H](CCCCN)C(=O)O)[C@@H](C)O)[C@@H](C)O (H-KRVNTAWKTK-OH; N-terminus and C-terminus assumed) | 332 nM | – | – | –
3 | CSCC[C@H](NC(=O)[C@@H](N)CCCCN)C(=O)N[C@@H](CCCNC(=N)N)C(=O)N[C@@H](CCCCN)C(=O)N[C@@H](CCCCN)C(=O)N[C@@H](Cc1ccc(O)cc1)C(=O)N[C@@H](C)C(=O)N[C@@H](CCC(N)=O)C(=O)N[C@@H](CCCCN)C(=O)O (H-KMRKKYAQK-OH; N-terminus and C-terminus assumed) | 5.7 nM | – | – | –
4 | C[C@@H](O)[C@H](NC(=O)[C@@H](N)CCCCN)C(=O)N[C@@H](Cc1ccccc1)C(=O)N[C@@H](CCC(=O)O)C(=O)N[C@@H](CCCCN)C(=O)N[C@@H](CCCCN)C(=O)NCC(=O)N[C@@H](CCC(=O)O)C(=O)N[C@@H](CCCCN)C(=O)O (H-KTFEKKGEK-OH; N-terminus and C-terminus assumed) | 32.2 nM | – | – | –
5 | CC(C)C[C@H](N)C(=O)N[C@@H](Cc1ccccc1)C(=O)N[C@@H](Cc1ccccc1)C(=O)N[C@@H](Cc1ccccc1)C(=O)N[C@@H](Cc1ccccc1)C(=O)N[C@@H](Cc1ccccc1)C(=O)N[C@@H](CCC(=O)O)C(=O)N[C@H](C(=O)N[C@@H](CCCCN)C(=O)O)[C@@H](C)O (H-LFFFFFETK-OH; N-terminus and C-terminus assumed) | 413 nM | – | – | –
6 | CC(C)C[C@H](NC(=O)[C@@H](NC(=O)[C@@H](N)[C@@H](C)O)[C@@H](C)O)C(=O)N[C@@H](CC(N)=O)C(=O)N[C@@H](CO)C(=O)N1CCC[C@H]1C(=O)N1CCC[C@H]1C(=O)N[C@@H](CC(C)C)C(=O)N[C@@H](CCCCN)C(=O)N[C@@H](CCCCN)C(=O)O (H-TTLNSPPLKK-OH; N-terminus and C-terminus assumed) | 14.3 nM | – | – | –
7 | C[C@@H](O)[C@H](NC(=O)[C@H](CCC(=O)O)NC(=O)[C@H](CCCCN)NC(=O)[C@H](CCCCN)NC(=O)[C@H](CCCCN)NC(=O)[C@H](CO)NC(=O)[C@@H](N)CCCCN)C(=O)N[C@@H](Cc1ccccc1)C(=O)N[C@@H](CCCCN)C(=O)O (H-KSKKKETFK-OH; N-terminus and C-terminus assumed) | 74.3 nM | – | – | –
8 | CSCC[C@H](NC(=O)[C@@H](NC(=O)[C@@H](N)Cc1ccccc1)C(C)C)C(=O)N[C@@H](CO)C(=O)N[C@@H](CC(=O)O)C(=O)N[C@H](C(=O)N[C@H](C(=O)N[C@@H](Cc1ccc(O)cc1)C(=O)N[C@@H](CCCCN)C(=O)O)[C@@H](C)O)[C@@H](C)O (H-FVMSDTTYK-OH; N-terminus and C-terminus assumed) | 66.9 nM | – | – | –
9 | CC(C)C[C@H](NC(=O)[C@H](C)NC(=O)[C@@H]1CCCN1C(=O)[C@@H](NC(=O)[C@H](CCCCN)NC(=O)[C@H](CCCCN)NC(=O)[C@H](CC(C)C)NC(=O)[C@H](CO)NC(=O)[C@@H](N)Cc1c[nH]c2ccccc12)C(C)C)C(=O)N[C@@H](CCCCN)C(=O)O (H-WSLKKVPALK-OH; N-terminus and C-terminus assumed) | 94.9 nM | – | – | –
10 | CC(C)C[C@H](NC(=O)[C@H](C)NC(=O)[C@@H]1CCCN1C(=O)[C@@H](NC(=O)[C@H](CCCCN)NC(=O)[C@H](CCCCN)NC(=O)[C@H](CC(C)C)NC(=O)[C@@H](N)CO)C(C)C)C(=O)N[C@@H](CCCCN)C(=O)N[C@@H](CCCCN)C(=O)O (H-SLKKVPALKK-OH; N-terminus and C-terminus assumed) | 9.6 nM | – | – | –
11 | CC[C@H](C)[C@H](NC(=O)[C@H](CC(C)C)NC(=O)[C@H](Cc1c[nH]cn1)NC(=O)[C@@H](NC(=O)[C@H](CO)NC(=O)[C@H](CC(C)C)NC(=O)[C@H](CC(C)C)NC(=O)[C@@H](N)C(C)C)C(C)C)C(=O)N[C@H](C(=O)O)C(C)C (H-VLLSVHLIV-OH; N-terminus and C-terminus assumed) | – | 11 h | 72 nM | –
12 | CC[C@H](C)[C@H](NC(=O)[C@H](Cc1ccc(O)cc1)NC(=O)[C@H](CC(C)C)NC(=O)[C@@H](N)CO)C(=O)N[C@H](C(=O)NCC(=O)N[C@@H](Cc1ccccc1)C(=O)N[C@@H](Cc1ccc(O)cc1)C(=O)NCC(=O)N[C@@H](C)C(=O)O)C(C)C (H-SLYIVGFYGA-OH; N-terminus and C-terminus assumed) | – | 0.4 h | 390 nM | –
13 | CSCC[C@H](NC(=O)[C@H](CCC(=O)O)NC(=O)[C@H](CC(C)C)NC(=O)[C@H](CC(C)C)NC(=O)[C@H](CC(C)C)NC(=O)CNC(=O)[C@H](Cc1ccc(O)cc1)NC(=O)[C@H](CC(C)C)NC(=O)[C@@H]1CCCN1)C(=O)O (H-PLYGLLLEM-OH; N-terminus and C-terminus assumed) | – | 0.7 h | 640 nM | –
14 | CC(C)C[C@H](NC(=O)CN)C(=O)N[C@H](C(=O)N[C@@H](CC(=O)O)C(=O)N[C@@H](CCC(=O)O)C(=O)N[C@@H](CCC(N)=O)C(=O)N[C@@H](CCC(N)=O)C(=O)N[C@@H](CCC(=O)O)C(=O)N[C@H](C(=O)O)C(C)C)C(C)C | – | 7.4 h | 44 nM | –
15 | CC[C@H](C)[C@H](NC(=O)[C@H](Cc1ccc(O)cc1)NC(=O)[C@@H]1CCCN1C(=O)[C@H](CO)NC(=O)[C@H](CC(N)=O)NC(=O)[C@H](CO)NC(=O)[C@H](CCC(=O)O)NC(=O)[C@H](Cc1c[nH]cn1)NC(=O)[C@H](CC(C)C)NC(=O)[C@@H](N)C(C)C)C(=O)O (H-VLHESNSPYI-OH; N-terminus and C-terminus assumed) | – | 1.9 h | 131 nM | –
16 | CC[C@H](C)[C@H](NC(=O)[C@@H](N)CC(C)C)C(=O)N[C@@H](CCSC)C(=O)N[C@@H](CCC(N)=O)C(=O)N[C@@H](CC(C)C)C(=O)N[C@@H](CCSC)C(=O)N1CCC[C@H]1C(=O)N[C@@H](Cc1ccccc1)C(=O)NCC(=O)N[C@@H](CS)C(=O)O | – | 0.4 h | 177 nM | Stability (half-life (hr.)) ([2]; EGFR T790M peptides, HLA allele A02.01): 0.3813 h; Kd ([3]; EGFR T790M peptides, HLA allele A02.01, read-out: Affinity): 132 nM
17 | CC[C@H](C)[C@H](NC(=O)[C@H](Cc1ccc(O)cc1)NC(=O)[C@H](CCC(=O)O)NC(=O)CNC(=O)[C@H](CO)NC(=O)[C@@H](N)Cc1ccccc1)C(=O)N1CCC[C@H]1C(=O)N[C@H](C(=O)N[C@H](C(=O)O)C(C)C)[C@@H](C)O (H-FSGEYIPTV-OH; N-terminus and C-terminus assumed) | – | 6.8 h | 3 nM | –
18 | CC(C)C[C@H](NC(=O)[C@H](Cc1ccccc1)NC(=O)[C@@H](NC(=O)[C@H](Cc1ccc(O)cc1)NC(=O)[C@@H](NC(=O)CN)C(C)C)[C@@H](C)O)C(=O)N1CCC[C@H]1C(=O)N[C@@H](CO)C(=O)N[C@H](C(=O)O)[C@@H](C)O (H-GVYTFLPST-OH; N-terminus and C-terminus assumed) | – | 1.3 h | 779 nM | –
19 | CSCC[C@H](NC(=O)[C@H](CCC(=O)O)NC(=O)[C@H](CC(C)C)NC(=O)[C@H](CC(C)C)NC(=O)[C@H](CC(C)C)NC(=O)[C@H](CC(=O)O)NC(=O)[C@H](CS)NC(=O)[C@H](CC(C)C)NC(=O)[C@@H]1CCCN1)C(=O)N[C@@H](CC(C)C)C(=O)O (H-PLCDLLLEML-OH; N-terminus and C-terminus assumed) | – | 0.9 h | 2010 nM | –
20 | CSCC[C@H](NC(=O)[C@H](CCC(=O)O)NC(=O)[C@H](CC(C)C)NC(=O)[C@H](CC(C)C)NC(=O)[C@H](CC(C)C)NC(=O)[C@H](CC(=O)O)NC(=O)[C@H](CC(N)=O)NC(=O)[C@H](CC(C)C)NC(=O)[C@@H]1CCCN1)C(=O)O (H-PLNDLLLEM-OH; N-terminus and C-terminus assumed) | – | 4.2 h | 151 nM | –
21 | CSCC[C@H](NC(=O)[C@H](CC(C)C)NC(=O)[C@H](CCC(=O)O)NC(=O)[C@H](CCSC)NC(=O)[C@@H](N)CC(C)C)C(=O)N[C@@H](C)C(=O)NCC(=O)NCC(=O)N[C@@H](CC(=O)O)C(=O)N[C@@H](CC(C)C)C(=O)O (H-LMELMAGGDL-OH; N-terminus and C-terminus assumed) | – | 8.9 h | 311 nM | –
22 | CC(C)[C@H](NC(=O)[C@H](CO)NC(=O)[C@H](Cc1ccccc1)NC(=O)[C@H](Cc1ccccc1)NC(=O)[C@H](Cc1ccccc1)NC(=O)[C@H](Cc1ccccc1)NC(=O)[C@H](CS)NC(=O)[C@@H](NC(=O)[C@@H](N)CO)C(C)C)C(=O)O | – | 9.4 h | 175 nM | –
23 | CC[C@H](C)[C@H](NC(=O)[C@H](Cc1ccccc1)NC(=O)[C@H](CS)NC(=O)[C@H](CO)NC(=O)[C@H](CC(N)=O)NC(=O)[C@H](CO)NC(=O)[C@H](C)NC(=O)[C@H](CO)NC(=O)[C@H](CC(C)C)NC(=O)[C@H](C)N)C(=O)O (H-ALSASNSCFI-OH; N-terminus and C-terminus assumed) | – | 0.8 h | 226 nM | –
24 | CC(C)C[C@H](N)C(=O)N[C@H](C(=O)N[C@H](C(=O)N[C@H](C(=O)NCC(=O)N[C@@H](C)C(=O)N[C@@H](CC(=O)O)C(=O)NCC(=O)N[C@H](C(=O)O)C(C)C)C(C)C)C(C)C)C(C)C (H-LVVVGADGV-OH; N-terminus and C-terminus assumed) | – | – | – | Measured stability ([2]; HLA Allele A02.01, time for half of the complexes to dissociate at 37° C.): 0.0 h; IC50 ([3]; Measured Affinity (nM), HLA Allele A02.01): 977 nM; IC50 ([3]; Observed Affinity (IC50, (nM)), allele A02.01): 1190 nM
